PubChem BioAssay AID328 (DTP/NCI, 2004)
Where “and” joins values, the source holds several entries; their conditions need not be identical. Equal values may be shown once. Toxic doses and inconclusive results are not listed. How the source made its calls: active means survival T/C of 150% or more; inactive means T/C below 125% in these data.

System: BDF1 mice, P388 leukemia ip, median survival T/C
Experiment: NCI In Vivo Anticancer Drug Screen. Data for tumor model P388 Leukemia (intraperitoneal) in B6D2F1 (BDF1) mice
Conditions: endpoint: median survival time, higher = longer survival
In short: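 Antitumour effect was judged in vivo: survival in drug-treated mice, normalised to that of vehicle-dosed controls, gives the reported T/C.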

[1] = dose: 50.0 mg/kg/injection, schedule: Q01DX009 (ip), vehicle: saline with Tween-80
[2] = dose: 200.0 mg/kg/injection, schedule: Q01DX009 (ip), vehicle: saline with Tween-80
[3] = dose: 100.0 mg/kg/injection, schedule: Q04DX003 (ip), vehicle: Klucel (hydroxypropylcellulose) (HPC)
[4] = dose: 200.0 mg/kg/injection, schedule: Q04DX003 (ip), vehicle: Klucel (hydroxypropylcellulose) (HPC)
[5] = dose: 400.0 mg/kg/injection, schedule: Q04DX003 (ip), vehicle: Klucel (hydroxypropylcellulose) (HPC)
[6] = dose: 25.0 mg/kg/injection, schedule: Q01DX009 (ip), vehicle: saline with Tween-80
[7] = dose: 100.0 mg/kg/injection, schedule: Q01DX009 (ip), vehicle: saline with Tween-80
[8] = dose: 25.0 mg/kg/injection, schedule: Q01DX009 (ip), vehicle: saline
[9] = dose: 50.0 mg/kg/injection, schedule: Q01DX009 (ip), vehicle: saline
[10] = dose: 50.0 mg/kg/injection, schedule: Q04DX003 (ip), vehicle: saline
[11] = dose: 100.0 mg/kg/injection, schedule: Q04DX003 (ip), vehicle: saline
[12] = dose: 200.0 mg/kg/injection, schedule: Q01DX009 (ip), vehicle: saline
[13] = dose: 200.0 mg/kg/injection, schedule: Q04DX003 (ip), vehicle: saline
[14] = dose: 400.0 mg/kg/injection, schedule: Q04DX003 (ip), vehicle: saline
[15] = dose: 50.0 mg/kg/injection, schedule: Q01DX001 (ip), vehicle: saline with Tween-80
[16] = dose: 25.0 mg/kg/injection, schedule: Q01DX009 (ip), vehicle: Klucel (hydroxypropylcellulose) (HPC)
[17] = dose: 100.0 mg/kg/injection, schedule: Q01DX009 (ip), vehicle: Klucel (hydroxypropylcellulose) (HPC)
[18] = dose: 200.0 mg/kg/injection, schedule: Q01DX009 (ip), vehicle: Klucel (hydroxypropylcellulose) (HPC)
[19] = dose: 400.0 mg/kg/injection, schedule: Q01DX009 (ip), vehicle: Klucel (hydroxypropylcellulose) (HPC)

Measured: T/C

CN(C)c1ccc(/C=C/c2ccnc3ccc(Cl)cc23)cc1
inactive: [1] 100 % of control | [2] 100 % of control

CNC(=O)c1nc(C)c(C)[nH]c1=O
inactive: dose: 25.0 mg/kg/injection, schedule: Q01DX009 (ip), vehicle: water 97 % of control | dose: 50.0 mg/kg/injection, schedule: Q01DX009 (ip), vehicle: water 90 % of control | dose: 50.0 mg/kg/injection, schedule: Q04DX003 (ip), vehicle: water 103 % of control | dose: 100.0 mg/kg/injection, schedule: Q01DX009 (ip), vehicle: water 99 % of control | dose: 200.0 mg/kg/injection, schedule: Q01DX009 (ip), vehicle: water 90 % of control | dose: 400.0 mg/kg/injection, schedule: Q04DX003 (ip), vehicle: water 100 % of control

CN(C)C(=O)C(=O)C1C=Cc2ccccc21 (centres undefined)
inactive: dose: 100.0 mg/kg/injection, schedule: Q01DX001 (ip), vehicle: Klucel (hydroxypropylcellulose) (HPC) 100 % of control | [3] 100 % of control | dose: 200.0 mg/kg/injection, schedule: Q01DX001 (ip), vehicle: Klucel (hydroxypropylcellulose) (HPC) 95 % of control | [4] 104 % of control | dose: 400.0 mg/kg/injection, schedule: Q01DX001 (ip), vehicle: Klucel (hydroxypropylcellulose) (HPC) 90 % of control | [5] 104 % of control

COc1cc(CCC(NC(C)=O)c2cccc(O)c(=O)c2)cc(OC)c1OC (centres undefined)
inactive: [6] 90 % of control | [1] 96 % of control | [7] 90 % of control | [2] 91 % of control

CC(=O)CC(C)(C)c1ccccc1
inactive: [8] 118 % of control | [9] 111 % of control | [10] 105 % of control | [11] 105 % of control | [12] 93 % of control | [13] 121 % of control | [14] 102 % of control

CC(=O)CC(C)=O.CC(=O)CC(C)=O.Cc1ncc[nH]1.Cc1ncc[nH]1.[Co]
inactive: dose: 12.5 mg/kg/injection, schedule: Q01DX001 (ip), vehicle: saline with Tween-80 100 % of control | dose: 25.0 mg/kg/injection, schedule: Q01DX001 (ip), vehicle: saline with Tween-80 97 % of control | [15] 113 % of control

COc1ccc(NC(=O)Oc2cc(C)cc(C)c2)cc1
inactive: [3] 100 % of control | [4] 95 % of control | [5] 100 % of control

CC1CCCC(c2ccccc2)C1 (centres undefined)
inactive: [15] 109 % of control | dose: 100.0 mg/kg/injection, schedule: Q01DX001 (ip), vehicle: saline with Tween-80 109 % of control | dose: 200.0 mg/kg/injection, schedule: Q01DX001 (ip), vehicle: saline with Tween-80 109 % of control

c1ccc(-c2c[n+]3cc4ccccc4cc3cn2)cc1
inactive: dose: 100.0 mg/kg/injection, schedule: Q01DX009 (ip), vehicle: saline 95 % of control | [11] 100 % of control | [12] 91 % of control | [13] 113 % of control | dose: 400.0 mg/kg/injection, schedule: Q01DX009 (ip), vehicle: saline 91 % of control | [14] 95 % of control

CCN(CC)CCOC(=O)c1ccccc1Nc1cccc(C)c1
inactive: [8] 104 % of control | dose: 25.0 mg/kg/injection, schedule: Q04DX003 (ip), vehicle: saline 109 % of control | [9] 108 % of control | [10] 100 % of control | dose: 87.0 mg/kg/injection, schedule: Q04DX003 (ip), vehicle: saline 119 % of control | [11] 109 % of control | dose: 175.0 mg/kg/injection, schedule: Q04DX003 (ip), vehicle: saline 107 % of control

COC(=O)c1ccc(C(=O)O)[n+]([O-])c1
inactive: [16] 96 % of control | dose: 25.0 mg/kg/injection, schedule: Q04DX003 (ip), vehicle: Klucel (hydroxypropylcellulose) (HPC) 100 % of control | dose: 50.0 mg/kg/injection, schedule: Q04DX003 (ip), vehicle: Klucel (hydroxypropylcellulose) (HPC) 104 % of control | [17] 88 % of control | [3] 113 % of control | [18] 89 % of control | [4] 95 % of control | [5] 87 % of control

CC(C)(CC(=O)O)CC(=O)OCC(=O)[C@@]1(O)CC[C@H]2[C@@H]3CCC4=CC(=O)C=C[C@]4(C)[C@H]3[C@@H](O)C[C@@]21C
inactive: dose: 100.0 mg/kg/injection, schedule: Q01DX009 (ip), vehicle: steriod suspending solution 100 % of control | dose: 100.0 mg/kg/injection, schedule: Q01DX009 (sc), vehicle: steriod suspending solution 120 % of control | dose: 100.0 mg/kg/injection, schedule: Q04DX003 (sc), vehicle: steriod suspending solution 108 % of control | dose: 200.0 mg/kg/injection, schedule: Q01DX009 (ip), vehicle: steriod suspending solution 90 % of control | dose: 200.0 mg/kg/injection, schedule: Q01DX009 (sc), vehicle: steriod suspending solution 120 % of control and 122 % of control | dose: 200.0 mg/kg/injection, schedule: Q04DX003 (sc), vehicle: steriod suspending solution 100 % of control | dose: 400.0 mg/kg/injection, schedule: Q01DX009 (ip), vehicle: steriod suspending solution 90 % of control | dose: 400.0 mg/kg/injection, schedule: Q01DX009 (sc), vehicle: steriod suspending solution 110 % of control | dose: 400.0 mg/kg/injection, schedule: Q04DX003 (sc), vehicle: steriod suspending solution 104 % of control

O=C1C(Cl)=C(N=Nc2c(Cl)c(O)c3ccccc3c2O)C(=O)c2ccccc21
inactive: dose: 3.12 mg/kg/injection, schedule: Q01DX009 (ip), vehicle: Klucel (hydroxypropylcellulose) (HPC) 110 % of control | dose: 6.25 mg/kg/injection, schedule: Q01DX009 (ip), vehicle: Klucel (hydroxypropylcellulose) (HPC) 115 % of control | dose: 12.5 mg/kg/injection, schedule: Q01DX009 (ip), vehicle: Klucel (hydroxypropylcellulose) (HPC) 116 % of control | [16] 109 % of control

CCN(CC)CC(Cl)CN(CC)CC
inactive: dose: 50.0 mg/kg/injection, schedule: Q04DX003 (ip), vehicle: saline with Tween-80 110 % of control | dose: 100.0 mg/kg/injection, schedule: Q04DX003 (ip), vehicle: saline with Tween-80 105 % of control | dose: 200.0 mg/kg/injection, schedule: Q04DX003 (ip), vehicle: saline with Tween-80 100 % of control

C=C(C)[C@@H]1CC[C@]2(C)CC[C@]3(C)[C@H](CC[C@@H]4[C@@]5(C)CC[C@H](O)C(C)(C)[C@@H]5CC[C@]43C)[C@@H]12
inactive: dose: 50.0 mg/kg/injection, schedule: Q01DX009 (ip), vehicle: Klucel (hydroxypropylcellulose) (HPC) 93 % of control | [17] 101 % of control | [18] 105 % of control | [19] 97 % of control

O=C(c1ccccc1)C1CCC(=O)C1c1ccccc1 (centres undefined)
inactive: [1] 108 % of control | [7] 100 % of control | [2] 99 % of control

CSC1C(=O)Nc2c1cccc2[N+](=O)[O-] (centres undefined)
inactive: dose: 50.0 mg/kg/injection, schedule: Q04DX002 (ip), vehicle: saline with Tween-80 96 % of control | dose: 100.0 mg/kg/injection, schedule: Q04DX002 (ip), vehicle: saline with Tween-80 92 % of control | dose: 200.0 mg/kg/injection, schedule: Q04DX002 (ip), vehicle: saline with Tween-80 99 % of control

CCCCC(=O)c1cc(OC)cc(OC)c1
inactive: [18] 100 % of control | [19] 91 % of control

COC(=O)C(NC(=O)c1ccccc1)=C(COC(C)=O)COC(C)=O
inactive: dose: 100.0 mg/kg/injection, schedule: Q04DX003 (ip), vehicle: saline sonified 95 % of control | dose: 200.0 mg/kg/injection, schedule: Q04DX003 (ip), vehicle: saline sonified 100 % of control | dose: 400.0 mg/kg/injection, schedule: Q04DX003 (ip), vehicle: saline sonified 110 % of control

COc1cc(CC#N)ccc1C
inactive: [16] 92 % of control

C=CCN1C=CC(=C/C=C(\C#N)C(=O)OCC)C=C1
inactive: [1] 99 % of control | [7] 91 % of control | [2] 99 % of control

NC(=S)N/N=C/c1ccc(NC(=O)c2ccccc2C(=O)O)cc1
inactive: [6] 95 % of control | [1] 87 % of control | [7] 100 % of control

O=C(O)c1cc(I)cc(I)c1
active: [14] 160 % of control
inactive: [11] 100 % of control | [13] 100 % of control

COC1=NCN=C2SC=C(N)N=C12
inactive: dose: 12.5 mg/kg/injection, schedule: Q01DX009 (ip), vehicle: saline 100 % of control | [8] 98 % of control | [9] 105 % of control
